This note sets out measurements from publication PMC10820264, “Combining Experimental and Computational Methods to Produce Conjugates of Anticholinesterase and Antioxidant Pharmacophores with Linker Chemistries Affecting Biological Activities Related to Treatment of Alzheimer’s Disease” (Molecules, 2024).

Test [1] in a line: ABTS radical cation scavenging assay. The following applies: for ABTS•+-Scavenging Activity TEAC: Trolox equivalents.
Test [2] deals with Human erythrocyte AChE (Homo sapiens, UniProt P22303). The test is described as follows: biochemical. The test is classed as biochemical. The protocol:
(§1) Human erythrocyte AChE and equine serum BChE were purchased from Milamed (Perm, Russia). Porcine liver CES, substrates, and reference compounds were from Sigma-Aldrich (St. Louis, MO, USA). The activity of enzymes was measured spectrophotometrically, as described in detail in [72] using ATCh iodide, BTCh iodide, and 4-NPA as substrates for AChE, BChE, and CES, respectively. Experimental conditions: K,Na—phosphate buffer (100 mM), 25 °C, pH 7.5 for AChE and BChE and pH 8.0 for CES assay. Measurements were carried out on a FLUOStar Optima microplate reader (BMG Labtech, Ortenberg, Germany).
(§2) Test compounds were dissolved in DMSO; the final concentration of solvent in the incubation mixture was 2% (v/v).

Test [3] addresses equine serum BChE (Equus caballus, UniProt P81908). Description: biochemical. It is filed as biochemical. The conditions noted are these: for BChE activity relative to tacrine (times more active): vs tacrine. The protocol:
as §1, §2

Test [4] deals with peripheral anionic site of Electrophorus electricus AChE (EeAChE) (Electrophorus electricus, UniProt O42275). The test is classed as binding.
peripheral anionic site of Electrophorus electricus AChE (EeAChE), sequence (O42275 24-633): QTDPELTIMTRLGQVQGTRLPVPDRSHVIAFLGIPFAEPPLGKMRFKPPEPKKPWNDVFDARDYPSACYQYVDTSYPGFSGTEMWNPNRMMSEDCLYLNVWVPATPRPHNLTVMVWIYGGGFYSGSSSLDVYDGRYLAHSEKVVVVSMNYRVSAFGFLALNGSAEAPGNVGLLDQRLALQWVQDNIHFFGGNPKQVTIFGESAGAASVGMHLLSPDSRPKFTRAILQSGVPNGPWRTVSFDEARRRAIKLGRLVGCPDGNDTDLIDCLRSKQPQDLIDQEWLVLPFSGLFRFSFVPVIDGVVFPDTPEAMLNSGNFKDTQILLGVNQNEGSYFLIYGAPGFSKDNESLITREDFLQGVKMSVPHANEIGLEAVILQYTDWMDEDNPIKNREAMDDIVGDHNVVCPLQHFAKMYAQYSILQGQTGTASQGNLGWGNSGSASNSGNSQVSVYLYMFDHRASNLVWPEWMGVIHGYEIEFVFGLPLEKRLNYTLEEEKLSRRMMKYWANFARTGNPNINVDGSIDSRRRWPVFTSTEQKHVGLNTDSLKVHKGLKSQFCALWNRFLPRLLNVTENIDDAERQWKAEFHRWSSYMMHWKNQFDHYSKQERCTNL
Test [5] relates to spontaneous lipid peroxidation in mouse brain homogenate. The test is classed as biochemical. The following applies: read-out: Inhibition of Spontaneous Lipid Peroxidation in Mouse Brain Homogenate, TBARS Assay IC50.
Test [6] in a line: Ferric-reducing antioxidant power (FRAP) assay. The following applies: Trolox equivalents.
In test [7] the test system is Porcine liver CES. The test is described as follows: CES inhibition, spectrophotometric, 4-NPA substrate. The test is classed as biochemical. The protocol:
as §1
Test compounds were dissolved in DMSO; the final concentration of solvent in the incubation mixture was 2% (v/v). […]

Test [8] relates to free radicals in mouse brain homogenate (TBHP-initiated). The test is classed as biochemical. The conditions noted are these: read-out: Radical Scavenging Capacity, Luminol Chemiluminescence Assay IC50.
Test [9] concerns the target Aβ42 (Homo sapiens, UniProt P05067). Description: Inhibition of Aβ42 self-aggregation, thioflavin T fluorescence. The test is classed as biochemical. The following applies: Aβ42 50 µM, compound 100 µM; read-out: Inhibition of Aβ42 Self-Aggregation.
Test [10] addresses AChE (Homo sapiens, UniProt P22303). Description: biochemical. The test is classed as biochemical. The following applies: for Ki: read-out: AChE Ki (competitive inhibition constant). The protocol:
(§3) A mechanism of AChE and BChE inhibition was assessed by a detailed analysis of enzyme kinetics with three increasing concentrations of inhibitor and six substrate concentrations, as described in detail in [72].

Test [11] concerns the target eqBChE (Equus caballus, UniProt P81908). Description: biochemical. It is filed as biochemical. The conditions noted are these: for Ki: read-out: eqBChE Ki (competitive inhibition constant). The protocol: as §3

The structures appear in SMILES notation.
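Wherever Propidium Displacement is given: compounds tested at 20 µM.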

Human erythrocyte AChE, sequence (P22303 other isoform, or with tags, fused parts or gaps): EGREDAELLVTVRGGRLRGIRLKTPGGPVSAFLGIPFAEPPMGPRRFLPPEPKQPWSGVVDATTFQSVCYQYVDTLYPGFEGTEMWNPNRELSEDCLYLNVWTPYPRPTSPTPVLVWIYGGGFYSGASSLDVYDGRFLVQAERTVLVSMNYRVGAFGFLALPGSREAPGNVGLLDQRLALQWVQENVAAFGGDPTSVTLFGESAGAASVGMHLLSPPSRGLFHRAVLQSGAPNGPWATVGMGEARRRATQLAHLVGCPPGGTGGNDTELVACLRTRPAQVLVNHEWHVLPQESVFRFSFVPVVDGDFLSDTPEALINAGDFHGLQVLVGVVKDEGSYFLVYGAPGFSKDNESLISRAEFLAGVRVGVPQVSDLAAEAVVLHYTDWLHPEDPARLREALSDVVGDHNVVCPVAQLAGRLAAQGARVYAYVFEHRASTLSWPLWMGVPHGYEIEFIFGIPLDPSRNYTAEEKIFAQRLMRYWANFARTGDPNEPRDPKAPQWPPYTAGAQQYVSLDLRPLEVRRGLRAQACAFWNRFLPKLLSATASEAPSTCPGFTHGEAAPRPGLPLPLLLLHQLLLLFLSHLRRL
AChE, sequence (P22303 other isoform, or with tags, fused parts or gaps): as above
equine serum BChE, sequence (P81908 whole entry): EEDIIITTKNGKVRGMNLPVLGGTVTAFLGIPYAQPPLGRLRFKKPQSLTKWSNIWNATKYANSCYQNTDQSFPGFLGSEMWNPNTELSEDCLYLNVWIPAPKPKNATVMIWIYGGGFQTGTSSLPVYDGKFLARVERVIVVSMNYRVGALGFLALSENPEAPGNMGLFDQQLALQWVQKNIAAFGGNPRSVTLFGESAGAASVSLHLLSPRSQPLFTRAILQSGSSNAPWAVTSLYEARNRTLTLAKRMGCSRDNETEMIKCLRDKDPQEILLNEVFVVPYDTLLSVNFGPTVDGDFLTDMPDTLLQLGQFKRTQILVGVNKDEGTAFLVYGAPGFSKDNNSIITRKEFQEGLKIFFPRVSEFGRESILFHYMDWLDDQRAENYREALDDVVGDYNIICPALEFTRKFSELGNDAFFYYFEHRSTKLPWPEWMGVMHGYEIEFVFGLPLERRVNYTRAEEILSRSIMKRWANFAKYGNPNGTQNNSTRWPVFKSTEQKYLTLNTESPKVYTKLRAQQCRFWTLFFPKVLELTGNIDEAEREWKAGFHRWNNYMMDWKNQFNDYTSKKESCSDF
eqBChE, sequence (P81908 whole entry): as above
Aβ42, sequence (P05067 672-713): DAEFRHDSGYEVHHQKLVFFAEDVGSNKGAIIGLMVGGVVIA

Regarding `CC(C)(C)c1cc(CNCCCCCCCCNc2c3c(nc4ccccc24)CCCCC3)cc(C(C)(C)C)c1O` [18d, 2,6-Di-tert-butyl-4-{[8-(7,8,9,10-tetrahydro-6H-cyclohepta[b]quinolin-11-ylamino)-octylamino]-methyl}-phenol], the IC50 in test [1] amounted to 15800 ± 600 nM; in test [2] it was 30.8 ± 0.2 nM; in test [3] it was 5.96 ± 0.58 nM; in test [5], 20200 ± 3300 nM; in [8], 9200 ± 600 nM. In addition, the “time to reach the activity level of Trolox in ABTS radical scavenging” value in [1] (compound at 20 μM (IC50 of Trolox)) is “less than 1 min”. For the same compound, the “BChE activity relative to tacrine (times more active)” value in [3] came to 5 times. Also, the “Propidium Displacement” value in test [4] is reported as 12.3 ± 0.8%. In test [6], the “Ferric-Reducing Antioxidant Power TE” value is recorded as 0.45 ± 0.01. The “CES % inhibition at 20 μM” value in [7] turned out to be 13.9 ± 1.2%. Also, the inhibition at 100 µM in test [9] worked out at 59.6 ± 4.7%. Further, the “AChE αKi (non-competitive inhibition constant)” value in test [10] amounted to 25.1 ± 0.2 nM. The Ki was 13 ± 1 nM in test [10] and 4.25 ± 0.33 nM in test [11]. Besides, the “eqBChE αKi (non-competitive inhibition constant)” value in [11] amounted to 6.06 ± 0.41 nM.

`CC(C)(C)c1cc(C=NCCCCCCCCNc2c3c(nc4ccccc24)CCCCC3)cc(C(C)(C)C)c1O` [15d, 2,6-Di-tert-butyl-4-{[8-(7,8,9,10-tetrahydro-6H-cyclohepta[b]quinolin-11-ylamino)-octylimino]-methyl}-phenol]: in [1], it took 19600 ± 800 nM to reach half-maximal inhibition (IC50) and the “ABTS•+-Scavenging Activity TEAC” value came out at 1.00 ± 0.03. Besides, in [2], 26 ± 2.4 nM corresponded to half-maximal inhibition (IC50). In test [3], the concentration for half-maximal inhibition (IC50) came to 6.24 ± 0.54 nM and the “BChE activity relative to tacrine (times more active)” value was 5 times. Also, the “Propidium Displacement” value in test [4] is recorded as 14.9 ± 1.2%. For the same compound, in test [5], the IC50 turned out to be 29100 ± 2400 nM. Further, the “Ferric-Reducing Antioxidant Power TE” value in [6] amounted to 0.73 ± 0.02. Further, the “CES % inhibition at 20 μM” value in [7] is reported as 25.5 ± 1.1%. Further, in test [8], the IC50 came to 3000 ± 100 nM. The inhibition at 100 µM in [9] came out at 63.5 ± 5%. In test [10], the “AChE αKi (non-competitive inhibition constant)” value turned out to be 31.4 ± 2.4 nM, the “type of AChE inhibition” value is given as “mixed type” and the Ki is 19.9 ± 0.8 nM. In [11], the “eqBChE αKi (non-competitive inhibition constant)” value is recorded as 5.68 ± 0.06 nM, the “type of BChE inhibition” value is “mixed type” and the inhibitory constant (Ki) came to 4.91 ± 0.42 nM.

With `CC(C)(C)c1cc(C=NCCCCCCNc2c3c(nc4ccccc24)CCCCC3)cc(C(C)(C)C)c1O` [15c, 2,6-Di-tert-butyl-4-{[6-(7,8,9,10-tetrahydro-6H-cyclohepta[b]quinolin-11-ylamino)-hexylimino]-methyl}-phenol], the IC50 in test [1] was found to be 22300 ± 1100 nM; in [2], 151 ± 13 nM; in [3], 10.6 ± 0.2 nM; in test [5], 27600 ± 1700 nM; in test [8] it was 2300 ± 300 nM. Also, the “ABTS•+-Scavenging Activity TEAC” value in [1] stood at 0.90 ± 0.03. Further, the “Propidium Displacement” value in test [4] was determined as 16.8 ± 1.2%. Moreover, in test [6], the “Ferric-Reducing Antioxidant Power TE” value came to 0.52 ± 0.02. Moreover, the “CES % inhibition at 20 μM” value in [7] is on record as 25.4 ± 0.9%. Moreover, the inhibition at 100 µM in test [9] was 43.4 ± 3.9%. Further, the “AChE αKi (non-competitive inhibition constant)” value in test [10] turned out to be 108 ± 3 nM. Further, the Ki in test [10] came out at 69.8 ± 5 nM; in [11], 5.13 ± 0.1 nM. The “eqBChE αKi (non-competitive inhibition constant)” value in [11] was 9.34 ± 0.62 nM.

Turning to `CC(C)(C)c1cc(CNCCCCCCNc2c3c(nc4ccccc24)CCCCC3)cc(C(C)(C)C)c1O` [18c, 2,6-Di-tert-butyl-4-{[6-(7,8,9,10-tetrahydro-6H-cyclohepta[b]quinolin-11-ylamino)-hexylamino]-methyl}-phenol], the IC50 in [1] turned out to be 21600 ± 1100 nM; in test [2] it was 103 ± 4 nM; in test [3], 14.9 ± 0.3 nM; in [5] it was 24600 ± 2800 nM; in test [8] it was 14600 ± 800 nM. Also, the “ABTS•+-Scavenging Activity TEAC” value in test [1] turned out to be 1.00 ± 0.03. Further, the “Propidium Displacement” value in test [4] stood at 12.5 ± 0.9%. Further, in test [6], the “Ferric-Reducing Antioxidant Power TE” value is reported as 0.43 ± 0.02. For the same compound, the “CES % inhibition at 20 μM” value in test [7] was determined as 16.8 ± 0.5%. Also, the inhibition at 100 µM in [9] turned out to be 47.8 ± 3.8%. Moreover, the “AChE αKi (non-competitive inhibition constant)” value in test [10] is 101 ± 5 nM. In addition, the figures for the inhibitory constant (Ki) in test [10] and in test [11] were 83.1 ± 1.4 nM and 7.83 ± 0.76 nM, respectively. In addition, in [11], the “eqBChE αKi (non-competitive inhibition constant)” value came to 17.3 ± 0.2 nM.
